Data set [1] concerns THP-1 cells. Briefly: Cytotoxicity (cell titer glo) as headed in Table 3. The format is cell-based, human. Conditions: cytotoxicity defined as greater than 40% loss of cells. As to the method: THP-1 cells obtained from ATCC were seeded at 50 k cells/100 μl/well in a 96 well plate (Corning Cat#3340). Peptides were dissolved in DMSO at 10 mM as stock solution, then 1:10 in water at 1 mM, mix well. R848 (Enzo Cat#ALX-420-038-M005) was dissolved in DMSO (Sigma Cat#D2650) at 10 mM. […] R848 was added to the 96-well cell plate at a final concentration of 10 μM, and cells were incubated at 37° C. for 24 h. The supernatant was tested for IL6 by Alphalisa (Perkin Elmer AL233C) as per manufacturer's instructions. Viability of the cells was measured by cell titer glo (Promega).
A general note: In ATP-based viability assays light output follows the ATP content of the culture.

The test system of data set [2] is NFκB nuclear translocation in HeLa cells. Briefly: NFκB translocation assay (TNFα mediated, high content imaging). The format is cell-based. Conditions: 50 μM peptide; TNFα induced NFkB translocation in HeLa cells. As to the method: The selectivity of the CPP's over NFκB was determined using a high content screening assay wherein TNFα mediated nuclear translocation of NFκB was determined by imaging.
HeLa cells were plated at 5000 cells/well in 96 well Perkin Elmer ViewPlates and incubated overnight at 37 C. Media was aspirated and compounds pre-diluted in 0.05% BSA Hanks/20 mM HEPES were added in duplicate at various concentrations for 30 minutes. Wells were stimulated with 20 μl of 150 ng/ml TNFα for 30 minutes at 37 C. Wells were aspirated and the cells were fixed with 3.7% formaldehyde solution for 15 minutes at room temperature. The fixative was removed and the plates were washed with PBS. The NFkB translocation assay, based upon detection of an antibody to p65 (Thermo-Fisher), was completed and read on the Perkin Elmer Operetta at 40×.

Data set [3] has as its target T1, Wild type IRF5 (222-467) (Homo sapiens, UniProt Q13568).
T1 construct: S430D phosphomimetic construct of IRF5 (222-467) as well as WT (222-467)
As to the kind of experiment: FRET IRF5 dimerization inhibition assay (TR-FRET), WT construct. The format is binding.
Experimental: (§1) The following steps may then be performed: • 1) Prepare 100 nM of biotin-IRF5(S430D) (0.96 mg/ml or 32 uM,) and 250 nM His-IRF5(S430D) (1.51 mg/ml or 51 uM,) in AB1 • 2) Add 50 ul/well of solution in (1) into peptide solutions in 96-well PP plates as described above and incubate at RT for 20 min. • 3) Prepare 10 nM Eu-labeled streptavidin and 80 nM APC-labeled anti-His Ab in AB2 (AB1 w/o DTT) containing 5% DMSO and add 17 ul/well into solutions in (4). • 4) Transfer 30 ul/well into 384-well PP plate (Matrix) and incubate at 40 C for 1 day.
(§2) To test the ability of compounds to inhibit IRF5 dimerization a time-resolved fluorescence resonance energy transfer (TR-FRET) was developed. Binding of recombinant His tagged IRF5 (222-467 constructs) to recombinant biotin tagged IRF5 was measured by FRET between Europium labeled anti-GST antibody and Stretavidin-conjugated Allophycocyanin. […] The IRF5 S430 and WT (222-467) constructs were then used to test the ability of compounds to inhibit dimerization. […] Fifty microliters per well of 100 nM biotin tag IRF5(222-467, S430D) and 250 nM His tag IRF5(222-467, S430D) in Assay Buffer (50 mM Tris-HCl, pH 7.4, 100 mM NaCl, 1 mM DTT and 0.2 mg/ml BSA) were added. The samples were incubated at room temperature for 20 min. Seventeen microliters per well of detection solution containing 10 nM europium (Eu) conjugated streptavidin and 80 nM allophycocyanin (APC) conjugated anti-His antibody (Columbia Biosciences) in Assay Buffer (without DTT) were added. The samples were incubated at room temperature for 60 min followed by overnight incubation at 40 C and 30 ul per well were transferred to 384-well polystyrene plates (Matrix, Thermal Scientific) in duplicates. Assay signals were monitored by reading excitation at 340 nm and emission fluorescence at 615 nm and 665 nm on an Envision reader. TR-FRET signals were calculated by the ratio of acceptor to donor signals after subtracting both blank and donor cross-talk values from acceptor signal (Huang, K S and Vassilev, L T, Methods Enzymol., 399, 717-728 (2005)). The data were processed in Excel XLfit and the IC50 values were calculated using a nonlinear curve-fitting algorithm (four parameter equation). The data represent an average of 3 independent experiments (each run in triplicates) and the reported errors represent standard deviation (s.d.).

For data set [4], the target named is T2, IRF5 (222-467, S430D) (Homo sapiens, UniProt Q13568, S440D).
T2 construct: 250 nM His tag IRF5(222-467, S430D); 100 nM biotin tag IRF5(222-467, S430D)
T2 sequence (Q13568 232-477 S440D): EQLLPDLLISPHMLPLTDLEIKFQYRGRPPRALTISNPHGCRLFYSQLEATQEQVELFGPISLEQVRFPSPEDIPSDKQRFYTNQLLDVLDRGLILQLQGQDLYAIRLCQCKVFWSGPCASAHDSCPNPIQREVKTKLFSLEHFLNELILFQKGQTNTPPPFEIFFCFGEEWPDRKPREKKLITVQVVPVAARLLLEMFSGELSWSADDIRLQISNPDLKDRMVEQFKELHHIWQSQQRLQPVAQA
Briefly: FRET IRF5 dimerization inhibition assay (TR-FRET), S430D construct. The format is binding.
Experimental: as §1, §2

The mark [5] stands for this setting: Table 2, WT IRF5 (222-467), read-out: WT IC50.
Setting [6] is: Table 1, S430D phosphomimetic construct of IRF5 (222-467), average of 3 experiments ± s.d., read-out: S430D IC50.
The mark [7] stands for this setting: Table 1, WT IRF5 (222-467), average of 3 experiments ± s.d., read-out: WT IC50.

Like-named read-outs stand apart in the source and are kept apart here.

The values below come from patent US20160009772A1, “CELL PENETRATING PEPTIDES WHICH BIND IRF5” (priority 2012, published 2016).

T1 sequence (Q13568 232-477): as the sequence (Q13568 232-477 S440D) above, with D209S counted along it

Turning to “Ac-MIILIISFPKHKDWKVILVK-NH2 [SEQ ID NO 14]”, in data set [1], the “Cytotoxicity in THP-1 cells at 10 μM” value is “None”. In addition, in data set [2], the “NFkB selectivity (50 μM)” value is “No inhibition”.

What is called IC50 is the concentration at which inhibition is half-maximal. On to “Ac-PFPPLPIGEEAPKDDMVRFFKDLHQYLNVV-NH2 [SEQ ID NO 10]”, for which the IC50 in data set [3] (setting [5]) worked out at 0.35 µM.

“Ac-KDLMVQWFKDGGPSSGAPPPS-NH2 [SEQ ID NO 8]”: the IC50 came out at 1.68 µM in data set [4] (Table 2, S430D phosphomimetic construct of IRF5 (222-467), read-out: S430D IC50) and 0.79 µM in data set [3] (setting [5]).

As to `CSCC[C@H](NC(C)=O)C(=O)N[C@@H](C)C(=O)N[C@@H](CC(N)=O)C(=O)N[C@@H](CC(C)C)C(=O)NCC(=O)N[C@@H](Cc1ccc(O)cc1)C(=O)N[C@@H](Cc1c[nH]c2ccccc12)C(=O)N[C@@H](CC(C)C)C(=O)N[C@@H](CC(C)C)C(=O)N[C@@H](CC(C)C)C(=O)N[C@@H](CC(C)C)C(=O)N[C@@H](Cc1ccccc1)C(=O)N[C@H](C(=O)N[C@H](C(=O)N[C@@H](CCSC)C(=O)N[C@@H](Cc1c[nH]c2ccccc12)C(=O)N[C@H](C(=O)N[C@@H](CC(=O)O)C(=O)N[C@H](C(=O)NCC(=O)N[C@@H](CC(C)C)C(=O)N[C@@H](C)C(=O)N[C@@H](CCCCN)C(=O)N[C@@H](CCCCN)C(=O)N[C@@H](CCCNC(=N)N)C(=O)N1CCC[C@H]1C(=O)N[C@@H](CCCCN)C(=O)N1CCC[C@H]1C(N)=O)C(C)C)[C@@H](C)O)[C@@H](C)O)C(C)C` [SEQ ID NO 4], the IC50 in data set [4] (setting [6]) was 26.4 ± 4.5 µM; in data set [3] (setting [7]), 19.5 ± 4 µM. Also, the “Cytotoxicity in THP-1 cells at 10 μM” value in data set [1] is “None”. Also, in data set [2], the “NFkB selectivity (50 μM)” value is “No inhibition”.

As for “Ac-IRLQISNPDLKDLMVQWFKDGGPSSGAPPPS-NH2 [SEQ ID NO 9]”, the 50% inhibitory concentration (IC50) in data set [3] (setting [5]) came out at 1.4 µM.

In the case of “Ac-IRLQISNPYLKFIPLKRAIWLIK-NH2 [SEQ ID NO 13]”, in data set [1], the “Cytotoxicity in THP-1 cells at 10 μM” value was “None”. For the same compound, in data set [2], the “NFkB selectivity (50 μM)” value is on record as “No inhibition”.

Take `CSCC[C@H](NC(C)=O)C(=O)N[C@@H](C)C(=O)N[C@@H](CC(N)=O)C(=O)N[C@@H](CC(C)C)C(=O)NCC(=O)N[C@@H](Cc1ccc(O)cc1)C(=O)N[C@@H](Cc1c[nH]c2ccccc12)C(=O)N[C@@H](CC(C)C)C(=O)N[C@@H](C)C(=O)N[C@@H](CC(C)C)C(=O)N[C@@H](CC(C)C)C(=O)N[C@@H](Cc1ccccc1)C(=O)N[C@H](C(=O)N[C@H](C(=O)N[C@@H](CCSC)C(=O)N[C@@H](Cc1c[nH]c2ccccc12)C(=O)N[C@H](C(=O)N[C@@H](CC(=O)O)C(=O)N[C@H](C(=O)NCC(=O)N[C@@H](CC(C)C)C(=O)N[C@@H](Cc1ccccc1)C(=O)N[C@@H](CCCCN)C(=O)N[C@@H](CCCCN)C(=O)N[C@@H](CCCNC(=N)N)C(=O)N1CCC[C@H]1C(=O)N[C@@H](CCCCN)C(=O)N1CCC[C@H]1C(N)=O)C(C)C)[C@@H](C)O)[C@@H](C)O)C(C)C` [SEQ ID NO 5]: the results for the half-maximal inhibitory concentration (IC50) in data set [4] (setting [6]) and in data set [3] (setting [7]) were 26.6 ± 5.4 µM and 22.4 ± 6.2 µM, respectively. In data set [1], the “Cytotoxicity in THP-1 cells at 10 μM” value is on record as “None”. Further, the “NFkB selectivity (50 μM)” value in data set [2] is “No inhibition”.

Regarding `CSCC[C@H](NC(C)=O)C(=O)N[C@@H](C)C(=O)N[C@@H](CC(N)=O)C(=O)N[C@@H](CC(C)C)C(=O)NCC(=O)N[C@@H](Cc1ccc(O)cc1)C(=O)N[C@@H](Cc1c[nH]c2ccccc12)C(=O)N[C@@H](CC(C)C)C(=O)N[C@@H](CC(C)C)C(=O)N[C@@H](C)C(=O)N[C@@H](CC(C)C)C(=O)N[C@@H](Cc1ccccc1)C(=O)N[C@H](C(=O)N[C@H](C(=O)N[C@@H](Cc1ccc(O)cc1)C(=O)N[C@@H](Cc1c[nH]c2ccccc12)C(=O)N[C@H](C(=O)N[C@@H](CC(=O)O)C(=O)N[C@@H](CC(C)C)C(=O)NCC(=O)N[C@@H](CC(C)C)C(=O)N[C@H](C(=O)N[C@@H](CCCCN)C(=O)N[C@@H](CCCCN)C(=O)N[C@@H](CCCNC(=N)N)C(=O)N1CCC[C@H]1C(=O)N[C@@H](CCCCN)C(=O)N1CCC[C@H]1C(N)=O)C(C)C)[C@@H](C)O)[C@@H](C)O)C(C)C` [SEQ ID NO 6], the concentration for half-maximal inhibition (IC50) in data set [4] (setting [6]) stood at 15.4 ± 5.8 µM; in data set [3] (setting [7]), 15.3 ± 4.8 µM. Further, the “Cytotoxicity in THP-1 cells at 10 μM” value in data set [1] was “None”. Moreover, in data set [2], the “NFkB selectivity (50 μM)” value was “No inhibition”.

For “Ac-YLKFIPLKRAIWLIK-NH2 [SEQ ID NO 23, Ac-YLKFIPLKRAIWLIK-NH2, reference compound]”, the IC50 in data set [4] and in data set [3] was over 75 µM throughout. For the same compound, the “affinity in FRET dimerization assay” value in data set [4] (S430D and WT IRF5 (222-467) constructs) was “does not display any affinity”.

For the compound `CSCC[C@H](NC(C)=O)C(=O)N[C@@H](C)C(=O)N[C@@H](CC(N)=O)C(=O)N[C@@H](CC(C)C)C(=O)NCC(=O)N[C@@H](Cc1ccc(O)cc1)C(=O)N[C@@H](Cc1c[nH]c2ccccc12)C(=O)N[C@@H](CC(C)C)C(=O)N[C@@H](Cc1ccc(O)cc1)C(=O)N[C@@H](C)C(=O)N[C@@H](CC(C)C)C(=O)N[C@@H](Cc1ccccc1)C(=O)N[C@@H](CC(C)C)C(=O)N[C@H](C(=O)N[C@@H](CCSC)C(=O)N[C@H](C(=O)N[C@H](C(=O)N[C@@H](CC(=O)O)C(=O)N[C@H](C(=O)NCC(=O)N[C@@H](CC(C)C)C(=O)N[C@@H](Cc1ccccc1)C(=O)N[C@@H](CCCCN)C(=O)N[C@@H](CCCCN)C(=O)N[C@@H](CCCNC(=N)N)C(=O)N1CCC[C@H]1C(=O)N[C@@H](CCCCN)C(=O)N1CCC[C@H]1C(N)=O)C(C)C)[C@@H](C)O)C(C)C)[C@@H](C)O` [SEQ ID NO 7], the IC50 in data set [4] (setting [6]) came out at 34.2 ± 5.5 µM; in data set [3] (setting [7]), 41.9 ± 6.4 µM. The “Cytotoxicity in THP-1 cells at 10 μM” value in data set [1] is reported as “None”. Further, the “NFkB selectivity (50 μM)” value in data set [2] was “No inhibition”.
